{"source": "patent US20260027116A1", "about": "“Methods of Treating Chronic Graft-Versus-Host Disease Following Allogeneic Hematopoietic Stem Cell Transplantation” (Kadmon Corporation, LLC, priority 2022, published 2026)", "experiment": "Example 1: plasma pharmacokinetics (Cmax, Tmax, AUC0-6 hr) of belumosudil and metabolites", "assay_type": "in vivo, human", "settings": "for AUC0-6 hr, Geometric Mean (Geometric Coefficient of Variation): plasma", "experimental": "Cmax was the maximum observed plasma concentration, obtained by a non-compartmental analysis. […] Timeframe: Cycles 1 and 2: pre-dose (0 hour), 1, 2, 3, 4, 5, and 6 hours post-dose on Day 1. […] Here, ‘number analyzed’=participants with available data for each specified category.\nTmax was defined as time to reach maximum observed plasma concentration, obtained by a non-compartmental analysis. […] Timeframe: Cycles 1 and 2: pre-dose (0 hour), 1, 2, 3, 4, 5, and 6 hours post-dose on Day 1. Analysis was performed on PK population. Here, ‘number analyzed’=participants with available data for each specified category.\nAUC0-6 hr was defined as area under the plasma concentration versus time curve from time 0 to 6 hours post-dose, obtained by a non-compartmental analysis from the concentration-time data. […] Timeframe: Cycles 1 and 2: pre-dose (0 hour), 1, 2, 3, 4, 5, and 6 hours post-dose on Day 1. Analysis was performed on PK population. Here, ‘number analyzed’=participants with available data for each specified category."}
{"molecule": "CC(C)NC(=O)COc1cccc(-c2nc(Nc3ccc4[nH]ncc4c3)c3ccccc3n2)c1", "note": "[Belumosudil, 2-{3-[4-(1H-indazol-5-ylamino)-2-quinazolinyl]phenoxy}-N-(propan-2-yl) acetamide]", "values": [{"measurement": "Cmax, geometric mean (geometric CV)", "setting": "Cycle 1 Day 1, Cohort 1, belumosudil 200 mg QD", "result": 2500, "unit": "nanograms per milliliter"}, {"measurement": "Cmax, geometric mean (geometric CV)", "setting": "Cycle 1 Day 1, Cohort 2, belumosudil 200 mg BID", "result": 1400, "unit": "nanograms per milliliter"}, {"measurement": "Cmax, geometric mean (geometric CV)", "setting": "Cycle 1 Day 1, Cohort 3, belumosudil 400 mg QD", "result": 2960, "unit": "nanograms per milliliter"}, {"measurement": "Cmax, geometric mean (geometric CV)", "setting": "Cycle 2 Day 1, Cohort 1, belumosudil 200 mg QD", "result": 2020, "unit": "nanograms per milliliter"}, {"measurement": "Cmax, geometric mean (geometric CV)", "setting": "Cycle 2 Day 1, Cohort 2, belumosudil 200 mg BID", "result": 1890, "unit": "nanograms per milliliter"}, {"measurement": "Cmax, geometric mean (geometric CV)", "setting": "Cycle 2 Day 1, Cohort 3, belumosudil 400 mg QD", "result": 3270, "unit": "nanograms per milliliter"}, {"measurement": "AUC0-6 hr, Geometric Mean (Geometric Coefficient of Variation)", "setting": "Belumosudil 200 mg BID, Cycle 1 Day 1", "result": "4960 hours*nanograms per milliliter"}, {"measurement": "AUC0-6 hr, Geometric Mean (Geometric Coefficient of Variation)", "setting": "Belumosudil 200 mg BID, Cycle 2 Day 1", "result": "7190 hours*nanograms per milliliter"}, {"measurement": "AUC0-6 hr, Geometric Mean (Geometric Coefficient of Variation)", "setting": "Belumosudil 200 mg QD, Cycle 1 Day 1", "result": "8350 hours*nanograms per milliliter"}, {"measurement": "AUC0-6 hr, Geometric Mean (Geometric Coefficient of Variation)", "setting": "Belumosudil 200 mg QD, Cycle 2 Day 1", "result": "7090 hours*nanograms per milliliter"}, {"measurement": "AUC0-6 hr, Geometric Mean (Geometric Coefficient of Variation)", "setting": "Belumosudil 400 mg QD, Cycle 1 Day 1", "result": "11500 hours*nanograms per milliliter"}, {"measurement": "AUC0-6 hr, Geometric Mean (Geometric Coefficient of Variation)", "setting": "Belumosudil 400 mg QD, Cycle 2 Day 1", "result": "12000 hours*nanograms per milliliter"}]}
